What is called mortality is the percentage killed. For orientation: LD50 means the dose expected to kill half of the subjects tested.

Like-named read-outs stand apart in the source and are kept apart here.

The source of these data is US5614527A, “Insecticidal tetrahydrofuran-compound” (Mitsui Toatsu Chemicals, Inc., priority 1994, dated 1997).

In series [1] the test system is Laodelphax striatellus Fallen--Smaller brown planthopper. Description: Effect on smaller brown planthopper (mortality, treated rice seedlings). To be noted: female adults, 25° C., 48 hours. Type of series: in vivo. The procedure:
Effect on Laodelphax striatellus Fallen--Smaller brown planthopper Each compound of the present invention was dissolved in acetone to prepare an acetone solution having a predetermined concentration, and 3 ml of the acetone solution was applied over a bundle of several rice seedlings (about third leaf stage). After drying in air, the treated seedlings were covered with a metal gauze cylinder, and ten female adults of smaller brown planthopper were introduced into the cylinder. Afterward, this cylinder was placed in a temperature controlled room at 25° C. and after 48 hours, mortality was checked.

Series [2] concerns resistant strain of Nepphotettix cincticeptus Unler--Resistant green rice leafhopper. In words: Effect on resistant green rice leafhopper (mortality, treated rice seedlings). The series is classed as in vivo. The note with it: for mortality at 200 ppm / mortality at 1000 ppm: Nephotettix cincticeps. The procedure:
Effect on resistant strain of Nepphotettix cincticeptus Unler--Resistant green rice leafhopper
Each compound of the present invention was dissolved in acetone to prepare an acetone solution having a predetermined concentration, and 3 ml of the acetone solution was applied over a bundle of several rice seedlings (about third leaf stage). After drying in air, the treated seedlings were covered with a metal gauze cylinder, and ten female adults of resistant green rice leafhopper were introduced into the cylinder. Afterward, this cylinder was placed in a temperature controlled room at 25° C., and after 48 hours, mortality was checked.

The test system of series [3] is Spodoptera litura Fabricius--Common cutworm. Description: Effect on common cutworm (mortality, leaf immersion). The note with it: second instar larvae, 25° C.; for mortality at 1000 ppm: Spodoptera litura, 72 h; for Mortality (%): 1000 ppm, 72 hours, 4320 min. The series is classed as in vivo. The procedure:
(§1) 20 parts of a compound of the present invention, 10 parts of Sorpol 355S (made by Toho Chemical Co., Ltd., a surface active agent), 70 parts of xylene were uniformly stirred and mixed to obtain an emulsion. Here, the parts mean parts by weight, which will apply to the following.
Effect on Spodoptera litura Fabricius--Common cutworm
The emulsion of each compound of the present invention prepared according to Formulation Example 1 was diluted with distilled water to a predetermined concentration, and a spreading agent New Gramin, made by Sankyo Co., Ltd.) was then added thereto so that its concentration might be 0.02%. Then, 3leaves of Ipomea batatas were fully immersed in the solution. After drying in air, the leaves were placed in a plastic cup having a diameter of 9 cm and a depth of 4 cm, and 10 second instar larvae of common cutworm were allowed to eat the leaves at 25° C. After 72 hours, mortality was checked.

In series [4] the test system is Myzus persicae Sulzer--Green peach aphid. Description: Effect on green peach aphid (mortality, sprayed eggplant seedlings). Type of series: in vivo. To be noted: for mortality at 10 ppm / mortality at 100 ppm: Myzus persicae, 48 h; for Mortality (%): 48 hours. Here is the method: as §1
Effect on Myzus persicae Sulzer--Green peach aphid
The emulsion of each compound of the present invention prepared according to Formulation Example 1 was diluted with distilled water to a predetermined concentration, and a spreading agent (New Gramn, made by Sankyo Co., Ltd.) was then added thereto so that its concentration might be 0.02%. Then, the thus prepared chemical solution was sprayed over eggplant seedlings of 2nd and 3rd plastochrons, on which green peach aphids had been parasitic, and the seedlings were the cultivated in a hothouse. After 48 hours, the number of the alive green peach aphid was counted to calculate mortality.

The nature of series [5]: Acute toxicity to mice (oral). The note with it: mouse, in vivo; oral (stomach tube); male mice 6 weeks old; 14 days observation. Here is the method:
5-week-old male mice (Crj: CD-1) were purchased and then tamed for 1 week, and so the mice of 6 weeks old were tested. The mice were bred in a breeding chamber having a temperature of 23°±2° C., a humidity of 50±10%, a ventilation frequency of 15 times/hour and a lighting time of 12 hours/day. A solid feed (CE-2, made by Nippon Clea) was given, and as drinking water, tap water was freely given.
Each compound to be tested was Suspended in acetone:corn oil (1:9) by the use of a high-speed homogenizer, and then orally administered forcedly to the mice to be tested through a stomach tube. The amount of the solution to be administered was 0.1 ml with respect to 10 g of weight (10 ml/kg).
One administration group was constituted of 5 mice, and an observation period was 14 days from the administration.

Setting [6] is: 200 ppm, female adults, 25° C., 48 hours, read-out: Mortality (%).
Where [7] appears, read: 1000 ppm, female adults, 25° C., 48 hours, read-out: Mortality (%).

Consider `O=[N+]([O-])N=C1NCCN1CC1CCCO1` (stereo not drawn) [Comparative Compound (1), 1-[(tetrahydro-2-furanyl)methyl]-2-(nitroimino)imidazolidine, reference compound], for which the “Mortality (%)” value in series [1] (200 ppm) was found to be 0%; in series [1] (1000 ppm), 20%. Further, the mortality at 200 ppm in series [2] (setting [6]) stood at 0%. Further, the mortality at 1000 ppm in series [2] (setting [7]) turned out to be 30%; in series [3] it was 0%. In series [4] (10 ppm), this molecule showed a mortality at 10 ppm of 0%. For the same molecule, the mortality at 100 ppm in series [4] (100 ppm) worked out at 0%.

Turning to `O=[N+]([O-])N=C1NCCN1Cc1ccoc1` [Comparative Compound (2), reference compound], the “Mortality (%)” value is given as 0% in series [1] (200 ppm) and 40% in series [1] (1000 ppm). Further, the mortality at 1000 ppm in series [3] is 0%.

As to `O=[N+]([O-])C=C1NCCCN1CC1CCOC1` (stereo not drawn) [Comparative Compound (3), reference compound], the mortality at 1000 ppm in series [3] came to 0%.

Regarding `O=[N+]([O-])/N=C1\NCCCN1Cc1ccc(Cl)nc1` [Comparative Compound (4), reference compound], the LD50 at 336 h in series [5] lay within 30 to 100 mg/kg.

`CC1CC(CN2CCCNC2=N[N+](=O)[O-])CO1` (stereo not drawn) [Compound No. 2, 1-[(2-methyl-4-tetrahydrofuryl)methyl]-2-(nitroimino)hexahydropyrimidine]: the “Mortality (%)” value in series [1] (200 ppm) worked out at 100%. Besides, the “Mortality (%)” value in series [1] (1000 ppm) was 100%. In series [2] (48 h), this molecule came in with a mortality at 200 ppm of 100% and a mortality at 1000 ppm of 100%. In series [4] (10 ppm), this molecule yielded a mortality at 10 ppm of 100%. This molecule also gave a mortality at 100 ppm in series [4] (100 ppm) of 100%. Also, the LD50 at 336 h in series [5] is over 500 mg/kg.

For `CC1(C)CC(CN2CCCNC2=N[N+](=O)[O-])CO1` (stereo not drawn) [Compound No. 3, 1-[(2,2-dimethyl-4-tetrahydrofuryl)methyl]-2-(nitroimino)hexahydropyrimidine], the “Mortality (%)” value in series [1] (200 ppm) and in series [1] (1000 ppm) was 100% in each case. Further, in series [2] (setting [6]), the mortality at 200 ppm is 100%. Also, in series [2] (setting [7]), the mortality at 1000 ppm was determined as 100%. For the same molecule, the mortality at 10 ppm in series [4] (10 ppm) was 100%. The mortality at 100 ppm in series [4] (100 ppm) was determined as 100%.

Regarding `O=[N+]([O-])N=C1NCCN1CC1CCOC1` (stereo not drawn) [Compound No. 4, 1-[(tetrahydro-3-furanyl)methyl]-2-(nitroimino)imidazolidine], the “Mortality (%)” value in series [1] (200 ppm) and in series [1] (1000 ppm) was 100% each time. The mortality at 200 ppm in series [2] (setting [6]) was determined as 100%. Further, the mortality at 1000 ppm in series [2] (setting [7]) and in series [3] was 100% in each case. The mortality at 10 ppm in series [4] (10 ppm) amounted to 67%. Also, in series [4] (100 ppm), the mortality at 100 ppm turned out to be 100%.

In the case of `CC1CC(CN2CCNC2=N[N+](=O)[O-])CO1` (stereo not drawn) [Compound No. 5, 1-[(2-methyl-4-tetrahydrofuryl)methyl]-2-(nitroimino)imidazolidine], the “Mortality (%)” value in series [1] (200 ppm) and in series [1] (1000 ppm) was 100% in each case. For the same molecule, the mortality at 200 ppm in series [2] (setting [6]) came out at 100%. Also, in series [2] (setting [7]), the mortality at 1000 ppm came to 100%. This molecule also returned a mortality at 10 ppm in series [4] (10 ppm) of 100%. The mortality at 100 ppm in series [4] (100 ppm) worked out at 100%.

As to `CC1(C)CC(CN2CCNC2=N[N+](=O)[O-])CO1` (stereo not drawn) [Compound No. 6, 1-[(2,2-dimethyl-4-tetrahydrofuryl)methyl]-2-(nitroimino)imidazolidine], the “Mortality (%)” value in series [1] (200 ppm) and in series [1] (1000 ppm) was 100% each time. Further, the mortality at 200 ppm in series [2] (setting [6]) was determined as 100%. Also, in series [2] (setting [7]), the mortality at 1000 ppm worked out at 100%. Besides, the mortality at 10 ppm in series [4] (10 ppm) stood at 82%. The molecule further had a mortality at 100 ppm in series [4] (100 ppm) of 100%.

Consider `CC(=O)N1CCN(CC2CCOC2)C1=N[N+](=O)[O-]` (stereo not drawn) [Compound No. 7, 1-(methylcarbonyl)-2-(nitroimino)-3-[(tetrahydro-3-furanyl)methyl]imidazolidine], for which the “Mortality (%)” value in series [1] (200 ppm) and in series [1] (1000 ppm) was 100% throughout. For the same molecule, in series [2] (setting [6]), the mortality at 200 ppm came out at 100%. Also, the mortality at 1000 ppm in series [2] (setting [7]) and in series [3] was 100% throughout. In series [4] (10 ppm), this molecule came in with a mortality at 10 ppm of 63%. The same molecule registered a mortality at 100 ppm in series [4] (100 ppm) of 100%.

For the molecule `CC(=O)N1CCCN(CC2CCOC2)C1=N[N+](=O)[O-]` (stereo not drawn) [Compound No. 8, 1-(methylcarbonyl)-2-(nitroimino)-3-[(tetrahydro-3-furanyl)methyl]hexahydropyrimidine], the “Mortality (%)” value in series [1] (200 ppm) and in series [1] (1000 ppm) was 100% each time. The mortality at 200 ppm in series [2] (setting [6]) worked out at 100%. Besides, the mortality at 1000 ppm in series [2] (setting [7]) is 100%. In series [4] (10 ppm), this molecule came in with a mortality at 10 ppm of 100%. In series [4] (100 ppm), this molecule registered a mortality at 100 ppm of 100%.

With `CC(C)C(=O)N1CCCN(CC2CCOC2)C1=N[N+](=O)[O-]` (stereo not drawn) [Compound No. 9, 1-(isopropylcarbonyl)-2-(nitroimino)-3-[(tetrahydro-3-furanyl)methyl]hexahydropyrimidine], the “Mortality (%)” value in series [1] (200 ppm) and in series [1] (1000 ppm) was 100% throughout. Further, in series [2] (setting [6]), the mortality at 200 ppm was determined as 100%. The mortality at 1000 ppm in series [2] (setting [7]) was 100%. The same molecule displayed a mortality at 10 ppm in series [4] (10 ppm) of 86%. The molecule further gave a mortality at 100 ppm in series [4] (100 ppm) of 100%.

In the case of `CC(=O)N1CCCN(CC2COC(C)C2)C1=N[N+](=O)[O-]` (stereo not drawn) [Compound No. 10, 1-(methylcarbonyl)-3-[(2-methyl-4-tetrahydrofuryl)methyl]-2-(nitroimino) hexahydropyrimidine], the “Mortality (%)” value in series [1] (200 ppm) and in series [1] (1000 ppm) was 100% throughout. Moreover, the mortality at 200 ppm in series [2] (setting [6]) is 100%. Moreover, the mortality at 1000 ppm in series [2] (setting [7]) and in series [3] was 100% in each case. Also, in series [4] (10 ppm), the mortality at 10 ppm came out at 100%. In series [4] (100 ppm), this molecule came in with a mortality at 100 ppm of 100%.

With `CCC(=O)N1CCCN(CC2CCOC2)C1=N[N+](=O)[O-]` (stereo not drawn) [Compound No. 11, 1-(ethylcarbonyl)-2-(nitroimino)-3-[(tetrahydro-3-furanyl)methyl]hexahydropyrimidine], the “Mortality (%)” value was 100% in series [1] (200 ppm), 100% in series [1] (1000 ppm) and 70% in series [3]. In addition, the mortality at 200 ppm in series [2] (setting [6]) was found to be 100%. The mortality at 1000 ppm in series [2] (setting [7]) worked out at 100%. In series [4] (100 ppm), this molecule returned a mortality at 100 ppm of 100%.

For the molecule `CCCC(=O)N1CCN(CC2CCOC2)C1=N[N+](=O)[O-]` (stereo not drawn) [Compound No. 12, 1-(propylcarbonyl)-2-(nitroimino)-3-[(tetrahydro-3-furanyl)methyl]imidazolidine], the “Mortality (%)” value in series [1] (200 ppm) and in series [1] (1000 ppm) was 100% throughout. Moreover, in series [2] (setting [6]), the mortality at 200 ppm worked out at 100%. The mortality at 1000 ppm in series [2] (setting [7]) and in series [3] was 100% each time. For the same molecule, in series [4] (10 ppm), the mortality at 10 ppm was found to be 0%. For the same molecule, the mortality at 100 ppm in series [4] (100 ppm) was found to be 66%.

Regarding `CCC(=O)N1CCCN(CC2CCOC2)C1=N[N+](=O)[O-]` (stereo not drawn) [Compound No. 13, 1-propionyl-2-(nitroimino)-3-[(tetrahydro-3-furanyl)methyl]hexahydropyrimidine], the “Mortality (%)” value in series [1] (200 ppm) is 100%; in series [1] (1000 ppm), 100%; in series [2] (200 ppm, female adults, 25° C., 48 hours), 100%; in series [2] (1000 ppm, female adults, 25° C., 48 hours), 100%; in series [3], 100%; in series [4] (10 ppm, 2880 min), 27%. In series [4] (100 ppm), the “Mortality (%)” value was found to be 100%.
